Assay results reported in patent US12409173B2, “Repurposing FDA-approved drugs as a novel cancer therapeutic avenue through inhibition of PRMT5” (priority 2019, dated 2025).

How the values were obtained:
NF-κB activation = assay: NF-κB luciferase assay; assay type: cell-based; conditions: increasing concentrations; PANC1, HT29 and MDA-MB-231 cells; 48 hours
Experimental: The NF-κB luciferase lentiviral construct pLA-NFκBmCMV-luc-H4-puro (containing five tandem copies of the NF-κB site from the IP10 gene) was introduced in the respective cell lines using Lipofectamine™ LTX Reagent and PLUS Reagents (Thermo Fisher Scientific). Luciferase activity was measured after 48 hours (with or without drug treatment) using Reporter Lysis Buffer kit (Promega, Madison, WI) as per manufacturer's instructions and the Synergy H4 Reader.

PRMT5 = target: T1, PRMT5 (Homo sapiens, UniProt O14744); assay: AlphaLISA PRMT5 methyltransferase assay (biotin-H4R3 substrate, SAM); assay type: biochemical; conditions: PRMT5 methyltransferase activity, FIG. 3C; read-out: IC50 binding affinities by AlphaLISA assay
T1 construct: Flag; made in house; host or cells: 293 cells
T1 sequence (O14744 whole entry): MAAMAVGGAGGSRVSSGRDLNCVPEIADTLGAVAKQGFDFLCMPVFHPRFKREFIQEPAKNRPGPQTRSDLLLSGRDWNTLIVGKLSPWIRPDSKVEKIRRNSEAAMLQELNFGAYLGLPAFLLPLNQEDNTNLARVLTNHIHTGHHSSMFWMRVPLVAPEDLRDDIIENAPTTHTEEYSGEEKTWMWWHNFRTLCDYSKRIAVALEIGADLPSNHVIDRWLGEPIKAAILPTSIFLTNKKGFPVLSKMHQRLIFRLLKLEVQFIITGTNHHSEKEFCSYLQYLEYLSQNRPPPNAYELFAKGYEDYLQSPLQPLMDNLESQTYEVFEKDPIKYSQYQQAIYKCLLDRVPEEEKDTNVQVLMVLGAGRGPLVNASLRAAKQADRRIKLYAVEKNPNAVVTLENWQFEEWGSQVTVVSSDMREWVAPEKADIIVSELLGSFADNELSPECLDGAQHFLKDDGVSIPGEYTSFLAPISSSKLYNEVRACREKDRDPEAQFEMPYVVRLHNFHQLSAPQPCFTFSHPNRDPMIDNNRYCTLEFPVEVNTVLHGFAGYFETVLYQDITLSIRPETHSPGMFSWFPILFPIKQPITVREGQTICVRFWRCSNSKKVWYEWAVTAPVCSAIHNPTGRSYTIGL
T1 sequence (Q9BQA1 whole entry partner): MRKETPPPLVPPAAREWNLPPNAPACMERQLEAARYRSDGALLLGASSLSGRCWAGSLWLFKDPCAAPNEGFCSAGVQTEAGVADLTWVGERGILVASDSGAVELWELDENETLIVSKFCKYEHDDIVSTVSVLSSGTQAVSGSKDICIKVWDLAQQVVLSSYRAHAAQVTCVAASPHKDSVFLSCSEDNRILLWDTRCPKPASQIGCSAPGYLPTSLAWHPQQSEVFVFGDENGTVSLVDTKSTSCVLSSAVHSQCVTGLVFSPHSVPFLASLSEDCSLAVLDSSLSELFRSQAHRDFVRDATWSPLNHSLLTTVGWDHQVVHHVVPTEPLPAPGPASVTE
From the text: For AlphaLISA HTS: the substrate, histone H4 peptide unmethylated at arginine (R) 3 (unmeH4R3) was purchased from AnaSpec (Fremont, CA). The 23-amino acid H4R3 peptide was biotinylated at its N′ terminus: […]-K(biotin)-NH2 (SEQ ID NO: 1). S-adenosyl methionine (SAM) was used as a methyl group donor (New England Biolabs, Ipswich, MA). Compound libraries comprising of FDA-approved drugs, synthetic and semi-synthetic natural products as well as bioactives were collectively purchased from Analyticon Discovery (Rockville, MD), MilliporeSigma (Burlington, MA) and Microsource Discovery Systems Inc (Gaylordsville, CT). Acceptor beads specific for dimethylated H4R3, Donor beads with a streptavidin tag, assay buffer, OptiPlate™ 384-well white bottom plates, TopSeal™-A film to seal the plates and EnVision® Multilabel Reader were sourced from PerkinElmer (Waltham, MA). […]
A detailed description of optimization of the AlphaLISA HTS screening protocol has already been published previously. […] Alpha signal was then quantified using the EnVision® reader.
To design a drug screen to check for compounds that had the potential to inhibit PRMT5 methyltransferase activity, the AlphaLISA assay was utilized. […] This emitted AlphaLISA signal is directly proportional to the methyltransferase activity of PRMT5, thus allowing for quantification of its enzymatic activity.

[1] = system: PRMT5-mediated R30 dimethylation of p65 (NF-κB); assay: Western blot for symmetric dimethylation of p65 at R30; assay type: cell-based; conditions: PANC1, HT29 and MDA-MB-231 cells; treated at MTT IC50 values; vs untreated
Experimental: Primary antibodies for symmetric dimethylation at arginine (R) 30 subunit of p65 (detected by generating a customized polyclonal primary antibody in collaboration with GenScript Inc, Piscataway, NJ) and […] (Sigma-Aldrich) with their corresponding secondary antibodies were used.
PDAC, CRC and BC cells were pelleted post treatment with either Clo or Can in phosphate buffered saline (PBS). Pellets were lysed by overnight incubation at −80° C. as well as addition of lysis buffer [(10 mM Tris-Cl pH 8.0, 1 mM EDTA, 1% Triton X, 0.1% sodium deoxycholate, 0.1% SDS (sodium dodecyl sulfate), 14 mM NaCl, 1 mM phenylmethylsulfonyl fluoride]. Protein concentration for each sample was determined using Protein Assay Reagent (Biorad, Hercules, CA). Equal protein concentrations were run on a 10% SDS-PAGE (polyacrylamide gel electrophoresis) gel and transferred using polyvinylidene fluoride membrane (Thermo Fisher Scientific). Membranes were exposed to respective primary and secondary antibodies at dilutions and times based on manufacturer's instructions. Protein signal was detected using enhanced chemiluminescence (ECL) reagent (PerkinElmer).

[2] = system: PANC1, HT29 and MCF7 xenografts; assay: Xenograft tumor growth in NSG mice (PANC1, HT29, MCF7); assay type: in vivo; conditions: PANC1, HT29 or MCF7 xenografts, 100 mg/kg oral gavage daily
Experimental: (§1) Male and female NSG mice were obtained from the In Vivo Therapeutics Core at Indiana University School of Medicine. After acclimation for 7 days, NSG mice (5-6 weeks old) were xenografted with Mycoplasma-free PANC1, MCF7 or HT29 cells subcutaneously (1×10^7 PANC1, 3×10^6 MCF7 or 3×10^6 HT29 cells used per mouse in 0.2 ml of a 1:1 mix of serum free DMEM media, or serum free RPMI media and Matrigel). Male mice were xenografted with PANC1 and HT29 cells. Female mice were xenografted with MCF7 cells. 5 mice were randomized in each group when tumor volumes reached ˜50 mm^3. Mice were treated with either vehicle control (10% DMSO, 20% PEG400, 5% Tween 80 and 65% sterile water), 100 mg/kg or 200 mg/kg candesartan cilexetil dissolved in the vehicle, or 100 mg/kg or 200 mg/kg cloperastine dissolved in the vehicle through oral gavage daily. Tumor volumes were measured 4 times per week and body weights were measured twice a week. The study was performed in accordance with the guidelines and standards of the Institutional Animal Care and Use Committee (IACUC)

[3] = system: CRC cell lines (HT29, HCT116 and DLD1); assay: MTT cell viability assay, CRC cells; assay type: cell-based; conditions: 4 days
Experimental: (§2) Cells were grown to 60% density in clear flat-bottom 96-well plates (Corning Inc, Corning, NY) for 24 hours and treated with a range of concentrations of either Clo or Can respectively, followed by incubation for 4 days. 10 μl of MTT dye (Sigma-Aldrich) was added to each well and incubated for 2 hours at 37° C. The media:MTT mixture was then removed and 10 μl DMSO was added per well. Absorbance was measured using Synergy H4 Multi-Mode Reader (BioTek Instruments, Winooski, VT).

[4] = system: PANC1, HT29 and MDA-MB231 cells; assay: Three-dimensional (3D) colony formation assay; assay type: cell-based; conditions: increasing concentrations, 72 hours of drug treatment
Experimental: PANC1 and MDA-MB-231 (1000 cells) as well as HT29 (250 cells) were seeded per well within ultra-low attachment plates (Corning Inc) in media comprising 3% Reduced Growth Factor-Matrigel (BD Biosciences, Franklin Lakes, NJ). Clo and Can were added in a concentration range from 5-100 μM and 5-120 μM respectively after seeding for 48 hours. After 72 hours of drug treatment, the cells were stained using 10% Alamar blue dye (Fisher) and fluorescence was quantified using a Synergy H4 Reader.

[5] = system: IL8 and TNFα mRNA expression; assay: qRT-PCR of NF-κB target genes IL8 and TNFα; assay type: cell-based; conditions: PANC1, HT29 and MDA-MB-231 cells; 48 hours; vs untreated
Experimental: Following treatment with either Clo or Can for 48 hours, total RNA was isolated from the respective cell lines using Trizol as described earlier. First strand complementary DNA was generated using SuperScript III First-Strand Synthesis Kit (Invitrogen, Carlsbad, CA). Following this, qPCR was executed using FastStart Universal SYBR Green kit (Roche, Indianapolis, IN).

[6] = set-up: species or system mice; conditions: mouse, in vivo, po, 100 mg/kg
Experimental: as §1

[7] = system: PDAC cells (PANC1, MiaPaCa2 and AsPC1); assay: MTT cell viability assay, PDAC cells; assay type: cell-based; conditions: 4 days
Experimental: as §2

[8] = system: BC cells (MD-MB-231 and BT20); assay: MTT cell viability assay, BC cells; assay type: cell-based; conditions: 4 days
Experimental: as §2

| Compound | activation of NF-κB (luciferase) (NF-κB activation) | IC50 (PRMT5) [µM] | dimethylation levels at R30 of p65 [1] | tumor sizes over time relative to control mice [2] | IC50 [3] [µM] | extent of 3D colony formation [4] | mRNA expression of IL8 and TNFα [5] | body weights over the course of treatment [6] | IC50 [7] [µM] | IC50 [8] [µM] |
| --- | --- | --- | --- | --- | --- | --- | --- | --- | --- | --- |
| CCOc1nc2cccc(C(=O)OC(C)OC(=O)OC3CCCCC3)c2n1Cc1ccc(-c2ccccc2-c2nn[nH]n2)cc1 (centres unmarked) [Can, Candesartan cilexetil] | concurrent decrease | 33 | reduction in the dimethylation levels at R30 | remarkably reduced tumor sizes | 15 to 17 | marked decrease | significant decrease | body weights remained similar | ~20 | 18 to 20 |
| Cl.Clc1ccc(C(OCCN2CCCCC2)c2ccccc2)cc1 (centres unmarked) [Clo, Cloperastine hydrochloride] | concurrent decrease | 27 | reduction in the dimethylation levels at R30 | significantly reduced tumor sizes | 18 to 34 | marked decrease | significant decrease | body weights remained similar | ~30 | 26 to 29 |
